Data from patent US7834173B2, “Esters of hyaluronic acid with rhein, process for their preparation and compositions comprising the same” (Laboratoire Medidom S.A., priority 2004, dated 2010).

Test: Viscosity / syringeability of 1% w/v solutions (VISCOMATE VM-10A)
Format: physicochemical
Conditions: 1% w/v in phosphate-buffered saline solution pH 7.4, 20±0.2° C., no stirring
Procedure: The syringeability of the HA-Re compound of the invention was analysed in comparison to that of hyaluronic acid both with a high and a low molecular weight.
In particular, the following three samples were prepared: • a) a 1% w/v solution of high molecular weight hyaluronic acid (average molecular weight approximately 1'200'000) in phosphate-buffered saline solution, pH 7.4 • b) a 1% w/v solution of low molecular weight hyaluronic acid (average molecular weight approximately 600'000) in phosphate-buffered saline solution, pH 7.4 • c) a 1% w/v solution of the HA-Re compound of the invention in phosphate-buffered saline solution, pH 7.4.
The viscosity of the samples was then measured using a VISCOMATE MODEL VM-10A (glass vial: 3 ml; in the absence of stirring conditions; temperature 20±0.2° C.), with the following values being obtained: • a) η=78.4 mPa·s • b) η=64.8 mPa·s • c) η=47.9 mPa·s

For low molecular weight hyaluronic acid, which “viscosity η” value is on record?
The value was 64.8 mPa·s.
